Earlier results as cited in US20250213572A1, “TYK2 INHIBITORS AND USES THEREOF” (Takeda Pharmaceutical Company Limited, priority 2022, published 2025).

Tests used:
[1] = system: moderate-to-severe psoriasis; details: 30 mg twice-daily; at four weeks; cited from earlier work
psoriasis = details: dose ranges used in the Phase 3 trials; cited from earlier work
[2] = system: moderate-to-severe ulcerative colitis; details: 6 mg once-daily; cited from earlier work

Compound: CCOc1cc([C@@H](CS(C)(=O)=O)N2C(=O)c3cccc(NC(C)=O)c3C2=O)ccc1OC [Otezla®]
- mean PASI reduction [1]: 37%

Compound: guselkumab: an anti-IL-23 monoclonal antibody
- increase of responses at 12 weeks compared to four weeks (psoriasis): three- to four-fold

Compound: deucravacitinib [reference compound]
- increase of responses at 12 weeks compared to four weeks (psoriasis): three- to four-fold
- primary endpoint of clinical remission at 12 weeks [2]: did not achieve its primary endpoint of clinical remission at 12 weeks
